Measured values: patent publication US6706740B2, “Fungicidal heterocyclic aromatic amides and their compositions, methods of use and preparation” (Dow AgroSciences LLC, priority 1999, dated 2004)

System: Septoria tritici—SEPTTR
Experiment: Leaf Blotch of Wheat, in vivo whole plant, 24 Hour Protectant
Settings: Zymoseptoria tritici, 24 h, 100 ppm spray, wheat, 24 hour protectant; control of fungal infection vs untreated plants; read-out: SEPTTR in vivo 1 Day Protectant
With `COc1ccnc(C(=O)Nc2ccc(Oc3ccc(OC(=O)C(C)C)cc3)cc2)c1O` [Compound 436] the pest or weed control at 100 ppm was 25 to 74%.

Same assay, conditions: Zymoseptoria tritici, 24 h, wheat plants sprayed at 100 ppm, inoculated after 24 hours; control of fungal infection vs untreated plants; read-out: SEPTTR in vivo 1 Day Protectant
Work on `Cn1cc(C(=O)NC2CC(C)(C)CC(C)(C)C2)c(O)n1` [Compound 557] yielded a pest or weed control at 100 ppm of 25 to 74%. Work on `CC(C)C(=O)O[C@H]1[C@H](C)OC(=O)[C@@H](NC(=O)c2conc2O)COC(=O)[C@@H]1Cc1ccccc1` [Compound 561] yielded a pest or weed control at 100 ppm of 25 to 74%.

System: Mycosphaerella graminicola (Septoria tritici—SEPTTR)
Experiment: In vitro fungal growth inhibition, Mycosphaerella graminicola (SEPTTR)
Assay type: cell-based
Settings: Zymoseptoria tritici; 25 ppm in growth medium; read-out: SEPTTR in vitro Growth Inhibition
In the case of `COc1ccnc(C(=O)Nc2ccc(Oc3ccc(OC(=O)C(C)C)cc3)cc2)c1O` [Compound 436], the inhibition at 25 ppm is reported as < 80%.

Same assay, conditions: Zymoseptoria tritici; 25 ppm in the growth medium; read-out: SEPTTR in vitro Growth Inhibition
With `Cn1cc(C(=O)NC2CC(C)(C)CC(C)(C)C2)c(O)n1` [Compound 557] the inhibition at 25 ppm was < 80%. For `CC(C)C(=O)O[C@H]1[C@H](C)OC(=O)[C@@H](NC(=O)c2conc2O)COC(=O)[C@@H]1Cc1ccccc1` [Compound 561], the inhibition at 25 ppm was < 80%.

System: Puccinia recondita—PUCCRT
Experiment: Brown Rust of Wheat, in vivo whole plant, 24 Hour Protectant
Settings: Puccinia; 100 ppm spray, wheat, 24 hour protectant; control of fungal infection vs untreated plants; read-out: PUCCRT in vivo 1 Day Protectant
For `COc1ccnc(C(=O)Nc2ccc(Oc3ccc(OC(=O)C(C)C)cc3)cc2)c1O` [Compound 436], the pest or weed control at 100 ppm was < 25%.

Same assay, conditions: Puccinia; wheat plants sprayed at 100 ppm, inoculated after 24 hours; control of fungal infection vs untreated plants; read-out: PUCCRT in vivo 1 Day Protectant
Compound `Cn1cc(C(=O)NC2CC(C)(C)CC(C)(C)C2)c(O)n1` [Compound 557] has a pest or weed control at 100 ppm of 25 to 74%. `CC(C)C(=O)O[C@H]1[C@H](C)OC(=O)[C@@H](NC(=O)c2conc2O)COC(=O)[C@@H]1Cc1ccccc1` [Compound 561] gave a pest or weed control at 100 ppm of 25 to 74%.

System: Phytophthora infestans (PHYTIN)
Experiment: microbe, parasite or virus in culture
Assay type: cell-based
Settings: Phytophthora infestans, read-out: PHYTIN in vitro Growth Inhibition
In the case of `Cn1cc(C(=O)NC2CC(C)(C)CC(C)(C)C2)c(O)n1` [Compound 557], the inhibition at 25 ppm is reported as > 80%. With `CC(C)C(=O)O[C@H]1[C@H](C)OC(=O)[C@@H](NC(=O)c2conc2O)COC(=O)[C@@H]1Cc1ccccc1` [Compound 561] the inhibition at 25 ppm was < 80%. With `COc1ccnc(C(=O)Nc2ccc(Oc3ccc(OC(=O)C(C)C)cc3)cc2)c1O` [Compound 436] the inhibition at 25 ppm was < 80%.

System: Stagonospora nodorum (Leptosphaeria nodorum—LEPTNO)
Experiment: In vitro fungal growth inhibition, Stagonospora nodorum (LEPTNO)
Assay type: cell-based
Settings: Leptosphaeria; 25 ppm in growth medium; read-out: LEPTNO in vitro Growth Inhibition
In the case of `COc1ccnc(C(=O)Nc2ccc(Oc3ccc(OC(=O)C(C)C)cc3)cc2)c1O` [Compound 436], the inhibition at 25 ppm is reported as < 80%.

Same assay, conditions: Leptosphaeria; 25 ppm in the growth medium; read-out: LEPTNO in vitro Growth Inhibition
For `Cn1cc(C(=O)NC2CC(C)(C)CC(C)(C)C2)c(O)n1` [Compound 557], the inhibition at 25 ppm was < 80%. For `CC(C)C(=O)O[C@H]1[C@H](C)OC(=O)[C@@H](NC(=O)c2conc2O)COC(=O)[C@@H]1Cc1ccccc1` [Compound 561], the inhibition at 25 ppm was < 80%.

System: Rhizoctonia solani (RHIZSO)
Experiment: microbe, parasite or virus in culture
Assay type: cell-based
Settings: Rhizoctonia solani, read-out: RHIZSO in vitro Growth Inhibition
For `Cn1cc(C(=O)NC2CC(C)(C)CC(C)(C)C2)c(O)n1` [Compound 557], the inhibition at 25 ppm was < 80%. For `CC(C)C(=O)O[C@H]1[C@H](C)OC(=O)[C@@H](NC(=O)c2conc2O)COC(=O)[C@@H]1Cc1ccccc1` [Compound 561], the inhibition at 25 ppm was < 80%. With `COc1ccnc(C(=O)Nc2ccc(Oc3ccc(OC(=O)C(C)C)cc3)cc2)c1O` [Compound 436] the inhibition at 25 ppm was < 80%.

System: Ustilago maydis (USTIMA)
Experiment: microbe, parasite or virus in culture
Assay type: cell-based
Settings: Mycosarcoma maydis, read-out: USTIMA in vitro Growth Inhibition
For `Cn1cc(C(=O)NC2CC(C)(C)CC(C)(C)C2)c(O)n1` [Compound 557], the inhibition at 25 ppm was < 80%. In the case of `CC(C)C(=O)O[C@H]1[C@H](C)OC(=O)[C@@H](NC(=O)c2conc2O)COC(=O)[C@@H]1Cc1ccccc1` [Compound 561], the inhibition at 25 ppm is reported as < 80%. For `COc1ccnc(C(=O)Nc2ccc(Oc3ccc(OC(=O)C(C)C)cc3)cc2)c1O` [Compound 436], the inhibition at 25 ppm was < 80%.

System: Phytophthora infestans—PHYTIN
Experiment: whole plant or invertebrate
Assay type: in vivo
Settings: Phytophthora, in Solanum lycopersicum, 24 h, read-out: PHYTIN in vivo 1 Day Protectant
In the case of `Cn1cc(C(=O)NC2CC(C)(C)CC(C)(C)C2)c(O)n1` [Compound 557], the pest or weed control at 100 ppm is reported as < 25%. In the case of `CC(C)C(=O)O[C@H]1[C@H](C)OC(=O)[C@@H](NC(=O)c2conc2O)COC(=O)[C@@H]1Cc1ccccc1` [Compound 561], the pest or weed control at 100 ppm is reported as < 25%. With `COc1ccnc(C(=O)Nc2ccc(Oc3ccc(OC(=O)C(C)C)cc3)cc2)c1O` [Compound 436] the pest or weed control at 100 ppm was < 25%.

System: Erysiphe graminis—ERYSGT
Experiment: Powdery Mildew of Wheat, in vivo whole plant, 24 Hour Protectant
Settings: Erysiphe; 100 ppm spray, wheat, 24 hour protectant; control of fungal infection vs untreated plants; read-out: ERYSGT in vivo 1 Day Protectant
With `COc1ccnc(C(=O)Nc2ccc(Oc3ccc(OC(=O)C(C)C)cc3)cc2)c1O` [Compound 436] the pest or weed control at 100 ppm was < 25%.

Same assay, conditions: Erysiphe; wheat plants sprayed at 100 ppm, inoculated after 24 hours; control of fungal infection vs untreated plants; read-out: ERYSGT in vivo 1 Day Protectant
With `Cn1cc(C(=O)NC2CC(C)(C)CC(C)(C)C2)c(O)n1` [Compound 557] the pest or weed control at 100 ppm was < 25%. `CC(C)C(=O)O[C@H]1[C@H](C)OC(=O)[C@@H](NC(=O)c2conc2O)COC(=O)[C@@H]1Cc1ccccc1` [Compound 561] showed a pest or weed control at 100 ppm of 25 to 74%.

System: Magnaporthe grisea (Pyricularia oryzae—PYRIOR)
Experiment: microbe, parasite or virus in culture
Assay type: cell-based
Settings: Pyricularia oryzae, read-out: PYRIOR in vitro Growth Inhibition
With `Cn1cc(C(=O)NC2CC(C)(C)CC(C)(C)C2)c(O)n1` [Compound 557] the inhibition at 25 ppm was < 80%. With `CC(C)C(=O)O[C@H]1[C@H](C)OC(=O)[C@@H](NC(=O)c2conc2O)COC(=O)[C@@H]1Cc1ccccc1` [Compound 561] the inhibition at 25 ppm was < 80%. In the case of `COc1ccnc(C(=O)Nc2ccc(Oc3ccc(OC(=O)C(C)C)cc3)cc2)c1O` [Compound 436], the inhibition at 25 ppm is reported as < 80%.

System: not given
Experiment: not given
Settings: not given
With `Cn1cc(C(=O)NC2CC(C)(C)CC(C)(C)C2)c(O)n1` [Compound 557] the melting point was 205 to 208 °C. Work on `CC(C)C(=O)O[C@H]1[C@H](C)OC(=O)[C@@H](NC(=O)c2conc2O)COC(=O)[C@@H]1Cc1ccccc1` [Compound 561] yielded a melting point of 115 to 117 °C. In the case of `COc1ccnc(C(=O)Nc2ccc(Oc3ccc(OC(=O)C(C)C)cc3)cc2)c1O` [Compound 436], the melting point is reported as 109 to 110.5 °C.

System: Leptosphaeria nodorum—LEPTNO
Experiment: Glume Blotch of Wheat, in vivo whole plant, 24 Hour Protectant
Settings: Leptosphaeria; 100 ppm spray, wheat, 24 hour protectant; control of fungal infection vs untreated plants; read-out: LEPTNO in vivo 1 Day Protectant
For `COc1ccnc(C(=O)Nc2ccc(Oc3ccc(OC(=O)C(C)C)cc3)cc2)c1O` [Compound 436], the pest or weed control at 100 ppm was 25 to 74%.

Same assay, conditions: Leptosphaeria; wheat plants sprayed at 100 ppm, inoculated after 24 hours; control of fungal infection vs untreated plants; read-out: LEPTNO in vivo 1 Day Protectant
For `Cn1cc(C(=O)NC2CC(C)(C)CC(C)(C)C2)c(O)n1` [Compound 557], the pest or weed control at 100 ppm was 25 to 74%. With `CC(C)C(=O)O[C@H]1[C@H](C)OC(=O)[C@@H](NC(=O)c2conc2O)COC(=O)[C@@H]1Cc1ccccc1` [Compound 561] the pest or weed control at 100 ppm was < 25%.
